System: Scenedesmus HPPD with glutamine 317 exchanged to methionine, alanine 318 substituted by glycine and glutamate 345 mutated to glutamin
Assay: In vitro HPPD activity assay
Assay type: biochemical, Scenedesmus obliquus
Settings: in words, from Table 6 data
Method: HPPD produces homogentisic acid and CO2 from 4-hydroxyphenylpyruvate (4-HPP) and O2. The activity assay for HPPD is based on the analysis of homogentisic acid by reversed phase HPLC.
The assay mixture can contain 150 mM potassium phosphate buffer pH 7.0, 50 mM L-ascorbic acid, 100 μM Catalase (Sigma-Aldrich), 1 μM FeSO4 and 0.2 units of purified mutated HPPD enzyme in a total volume of 505 μl. 1 unit is defined as the amount of enzyme that is required to produce 1 nmol of HGA per minute at 20° C.
After a preincubation of 30 min the reaction is started by adding 4-HPP to a final concentration of 0.05 mM. The reaction is allowed to proceed for 45 min at room temperature. The reaction is stopped by the addition of 50 μl of 4.5 M phosphoric acid. The sample is filtered using a […] pore size PVDF filtration device.
5 μl of the cleared sample is analyzed on an UPLC HSS T3 column (particle size 1.8 μm, dimensions 2.1×50 mm; Waters) by isocratic elution using 90% 20 mM NaH2PO4 pH 2.2, 10% methanol (v/v).
HGA is detected electrochemically at 750 mV (mode: DC; polarity: positive) and quantified by integrating peak areas (Empower software; Waters).
Inhibitors are dissolved in DMSO (dimethylsulfoxide) to a concentration of 0.5 mM. From this stock solution serial five-fold dilutions are prepared in DMSO, which are used in the assay. […] IC50 values are calculated using non-linear regression. […]

For `CCS(=O)(=O)c1cc(C(F)(F)F)ccc1C1=C(O)c2ncccc2C(C)(C)S1(=O)=O` [Inhibitor 4, 7-[2-ethylsulfonyl-4-(trifluoromethyl)phenyl]-5,5-dimethyl-6,6-dioxo-thiopyrano[4,3-b]pyridin-8-ol], which “resistance of the enzyme to the inhibitor” value is on record?
Its value is “conferred resistance”.

From patent US11248234B2, “Herbicide-resistant hydroxyphenylpyruvate dioxygenases” (BASF SE, priority 2015, dated 2022)
